# “Also recorded” adds a separate entry of the source. Structures can show the parent of a compound that is named as a salt. Where two headings read alike, the source gives them in different places.
# What was measured:
# vraR transcription = test: Tertiary screen: qRT-PCR of vraR in strain 923; assay type: cell-based, Staphylococcus aureus; details: for classification of lux screen result against qRT-PCR (true/false repressor or stimulator): in the presence of oxacillin; for Effect on vraSR Transcription: With oxacillin / Effect on vraSR Transcription: Compound alone: qRT-PCR of vraR; for Effect on vraSR Transcription: With oxacillin: compound 10 μM + oxacillin 2 μg/mL; for Effect on vraSR Transcription: Compound alone: compound 10 μM, no oxacillin
# [1] = tested on: MRSA strain USA300-isolate 923; test: Checkerboard MIC testing of compounds with oxacillin; assay type: cell-based, Staphylococcus aureus; details: for change of the MIC of oxacillin with compound concentration: strain 923, checkerboard
# diverse MRSA strains = test: MIC of oxacillin with a single concentration of compound in multiple MRSA strains; assay type: cell-based, Staphylococcus aureus
# Method: Testing potentiation of oxacillin by compounds in multiple MRSA strains: In order to be considered a synergistic agent in therapy of MRSA infection, it must be effective as a potentiator in diverse MRSA strains. To determine whether the oxacillin potentiators were effective against MRSA strains besides USA300, a single effective concentration of three compounds that were not known as antibiotics—gossypol, pyrvinium and clomiphene—were tested against multiple MRSA genetic backgrounds. Each compound was tested at a single optimal concentration, determined in the checkerboard assays, in combination with various concentrations of oxacillin. The strains included in this panel were from diverse genetic backgrounds as determined by multilocus sequence type (MLST) and contained a variety of SCCmec types. […] The MIC80 was […] for clomiphene, gossypol, and pyrvinium, respectively.
# VRS1 = test: microbe, parasite or virus in culture; assay type: cell-based, Staphylococcus aureus; details: for MIC: Staphylococcus aureus; for Synergy category: with vancomycin
# From the text: (§1) As shown in the analysis of the checkerboard assays (Table 6), gossypol fully potentiated vancomycin (FIC i<0.5) in hVISA, VISA, VRS2 and VRS1. […] Clomiphene partially potentiated vancomycin in hVISA, VISA, and VRS1 and it fully potentiated in strain VRS2.
# VRS2 = test: microbe, parasite or virus in culture; assay type: cell-based, Staphylococcus aureus; details: Staphylococcus aureus
# From the text: as §1
# hVISA 2275 = test: microbe, parasite or virus in culture; assay type: cell-based, Staphylococcus aureus; details: for MIC: Staphylococcus aureus
# From the text: as §1
# VISA 2283 = test: microbe, parasite or virus in culture; assay type: cell-based, Staphylococcus aureus; design: MIC (in combination) Van+: unit not given beside the values; details: for MIC: Staphylococcus aureus; for Synergy category: with vancomycin
# From the text: as §1
# MRSA strain 8004-01 = test: Checkerboard oxacillin + compound, strain 8004-01; design: MIC OX / MIC OX (+) / MIC cmpd alone: unit not given beside the values; details: strain 8004-1 (ST239)
# [2] = tested on: MRSA strain USA300 Pvra-lux; assay type: cell-based, Staphylococcus aureus; details: compound 10 μM + oxacillin 2 μg/mL; for RG avg (relative growth): ratio of OD600 to oxacillin alone, four runs
# Method in brief: (§2)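 Secondary screen: compound at 10 μM plus oxacillin 2 μg/mL, four biological replicates, luminescence read every 15 minutes. RG and RL are OD600 or max LU with compound plus oxacillin over pooled same-plate oxacillin controls; RL <0.8 repressor, >1.2 stimulator, 0.80-1.2 neutral.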
# [3] = tested on: vraSR transcription (Pvra::lux); assay type: cell-based, Staphylococcus aureus; details: compound 10 μM + oxacillin 2 μg/mL; for RL avg (relative luminescence): ratio of LU to oxacillin alone, four runs
# Method in brief: as §2
compound,measurement,setting,value
"CCN(CC)CCOc1ccc(/C(=C(/Cl)c2ccccc2)c2ccccc2)cc1 [Clomiphene citrate (Z,E), 2-(4-(2-chloro-1,2-diphenylethenyl)phenoxy)-N,N-diethyl-ethanamine]",classification of lux screen result against qRT-PCR (true/false repressor or stimulator),vraR transcription,true vraSR expression repressors
same,Effect on vraSR Transcription: With oxacillin,vraR transcription; listed as clomifene,vraR inhibitors; also recorded: repress
same,oxacillin MIC,"[1]; strain 923, 24 h, compound 0.25 μM",32 µg/mL
same,oxacillin MIC,"[1]; strain 923, 24 h, compound 0.5 μM",16 µg/mL
same,oxacillin MIC,"[1]; strain 923, 24 h, compound 1 μM",32 µg/mL
same,oxacillin MIC,"[1]; strain 923, 24 h, compound 2 μM",32 µg/mL
same,oxacillin MIC,"[1]; strain 923, 24 h, compound 4 μM",8 µg/mL
same,oxacillin MIC,"[1]; strain 923, 24 h, compound 8 μM",8 µg/mL
same,oxacillin MIC,"[1]; strain 923, 24 h, compound 16 μM",2 µg/mL
same,change of the MIC of oxacillin with compound concentration,[1],dose dependent decrease
same,"bactericidal effect of oxacillin (MBC, >99.9% killing)","[1]; strain 923, wells with FICi≦0.5 spotted on TSA",increased the bactericidal effect of oxacillin
same,MIC 80 of Ox in presence of compound,"diverse MRSA strains; panel of 11 MRSA isolates, clom 3.8 μM, gos 15 μM, pyr 0.5 μM",2 µg/mL
same,MIC50 of oxacillin in the presence of compound,diverse MRSA strains; panel of strains,0.5 µg/mL
same,MIC80 of oxacillin in the presence of compound,diverse MRSA strains; panel of strains,0.002 µg/mL
same,fold decrease in the oxacillin MIC50,"diverse MRSA strains; panel of strains, with compound against oxacillin alone",32 fold
same,MIC,"VRS1; VRS1, compound alone, read-out: MIC compound",12 µg/mL
same,FICi V + compound,VRS1; VRS1,0.75
same,Synergy category,VRS1; VRS1,partially potentiated (partially potentiated vancomycin (FIC i>0.5 and <1.0))
same,Synergy category,"VRS1; VRS1, listed as Clo",partial (partially potentiated vancomycin (FIC i>0.5 and <1.0))
same,MIC,"VRS2; VRS2, compound alone, read-out: MIC compound",12 µg/mL
same,MIC,"hVISA 2275; hVISA 2275, compound alone, read-out: MIC compound",12 µg/mL
same,Synergy category,"hVISA 2275; hVISA 2275, with vancomycin, listed as Clo",partial (partially potentiated vancomycin (FIC i>0.5 and <1.0))
same,MIC,"VISA 2283; VISA 2283, compound alone, read-out: MIC compound",12 µg/mL
same,FICi V + compound,VISA 2283; VISA 2283,0.75
same,Van FIC,VISA 2283; VISA 2283,0.5
same,compound FIC,VISA 2283; VISA 2283,0.25
same,fold decrease Van MIC,VISA 2283; VISA 2283,2 fold
same,MIC (in combination) compound+,"VISA 2283; VISA 2283, compound MIC with the indicated Van concentration",3
same,MIC (in combination) Van+,"VISA 2283; VISA 2283, vancomycin MIC in combination with compound",4
same,Synergy category,VISA 2283; VISA 2283,partially potentiated (partially potentiated vancomycin (FIC i>0.5 and <1.0))
same,Synergy category,"VISA 2283; VISA 2283, listed as Clo",partial (partially potentiated vancomycin (FIC i>0.5 and <1.0))
same,FIC Compound,MRSA strain 8004-01,0.5
same,FIC Ox,MRSA strain 8004-01,.03
same,MIC cmpd alone,MRSA strain 8004-01,10.4
same,MIC cmpd +,MRSA strain 8004-01; compound in combination with oxacillin,5.2 µg/mL
same,FICi,MRSA strain 8004-01; oxacillin + compound,0.53
same,MIC OX (+),MRSA strain 8004-01; oxacillin in combination with compound,16
"CC1=CC(=O)c2ccccc2C1=O [Menadione, 2-Methylnaphthalene-1,4-dione]",OD600 category,[2],inhibited (of <0.8 were classified as oxacillin synergists or potentiators)
same,RG avg (relative growth),[2],0.69
same,Effect on vraSR transcription,[3],repress (“vraSR repressors” (mean RL of <0.8))
same,RL avg (relative luminescence),[3],0.47
same,classification of lux screen result against qRT-PCR (true/false repressor or stimulator),vraR transcription,true vraSR expression repressors
same,Effect on vraSR Transcription: With oxacillin,vraR transcription,vraR inhibitors; also recorded: repress
same,oxacillin MIC,"[1]; strain 923, Men 10.8 μM",16 µg/mL
same,oxacillin MIC,"[1]; strain 923, Men 12.3 μM",16 µg/mL
same,oxacillin MIC,"[1]; strain 923, Men 14.1 μM",16 µg/mL
same,oxacillin MIC,"[1]; strain 923, Men 16.1 μM",2 µg/mL
same,oxacillin MIC,"[1]; strain 923, Men 18.4 μM",2 µg/mL
same,oxacillin MIC,"[1]; strain 923, Men 21 μM",2 µg/mL
same,oxacillin MIC,"[1]; strain 923, Men 24 μM",2 µg/mL
same,FICi (FIC index) with oxacillin,"[1]; strain 923, in at least one combination (well)",> 0.5
same,MIC of oxacillin,"[1]; strain 923, menadione at 16 μM",2 µg/mL
CN[C@H](CC(C)C)C(=O)N[C@H]1C(=O)N[C@@H](CC(N)=O)C(=O)N[C@H]2C(=O)N[C@H]3C(=O)N[C@H](C(=O)N[C@H](C(=O)O)c4cc(O)cc(O)c4-c4cc3ccc4O)[C@H](O)c3ccc(c(Cl)c3)Oc3cc2cc(c3O[C@@H]2O[C@H](CO)[C@@H](O)[C@H](O)[C@H]2O[C@H]2C[C@](C)(N)[C@H](O)[C@H](C)O2)Oc2ccc(cc2Cl)[C@H]1O [vancomycin],MIC,VRS1; read-out: MIC Van,1020 µg/mL
same,MIC,VRS2; read-out: MIC Van,16 µg/mL
same,MIC,hVISA 2275; read-out: MIC Van,4 µg/mL
same,MIC,"VISA 2283; VISA, read-out: MIC Van, VISA 2283, vancomycin alone",16 µg/mL
same,MIC Van,"VISA 2283; VISA 2283, vancomycin alone",8 µg/mL
same,MIC Van,"VISA 2283; VISA 2283, vancomycin alone, listed as Van",8 µg/mL
"CCn1cc(C(=O)O)c(=O)c2cc(F)c(N3CCNCC3)cc21 [Norfloxacin, 1-ethyl-6-fluoro-4-oxo-7-piperazin-1-yl-1H-quinoline-3-carboxylic acid]",OD600 category,[2],inhibited (of <0.8 were classified as oxacillin synergists or potentiators)
same,RG avg (relative growth),[2],0.40
same,Effect on vraSR transcription,[3],repress (“vraSR repressors” (mean RL of <0.8))
same,RL avg (relative luminescence),[3],0.33
same,classification of lux screen result against qRT-PCR (true/false repressor or stimulator),vraR transcription,true vraSR expression repressors
same,Effect on vraSR Transcription: With oxacillin,vraR transcription,repress
same,change of the MIC of oxacillin with compound concentration,[1],dose dependent decrease
Spiramycin,OD600 category,[2],inhibited (of <0.8 were classified as oxacillin synergists or potentiators)
same,RG avg (relative growth),[2],0.43
same,Effect on vraSR transcription,[3],repress (“vraSR repressors” (mean RL of <0.8))
same,RL avg (relative luminescence),[3],0.31
same,Effect on vraSR Transcription: With oxacillin,vraR transcription,super-stimulate
same,Effect on vraSR Transcription: Compound alone,vraR transcription,None
C[C@H]1[C@H](C)CC[C@]2(C(=O)O)CC[C@]3(C)C(=CC[C@@H]4[C@@]5(C)CC[C@H](O)C(C)(C)[C@@H]5CC[C@]43C)[C@H]12 [Ursolic acid],OD600 category,[2],inhibited (of <0.8 were classified as oxacillin synergists or potentiators)
same,RG avg (relative growth),[2],0.77
same,Effect on vraSR transcription,[3],repress (“vraSR repressors” (mean RL of <0.8))
same,RL avg (relative luminescence),[3],0.71
same,Effect on vraSR Transcription: Compound alone,vraR transcription,stimulate
